Reference: patent US10188639B2, “Methods of treating neurological, metabolic, and other disorders using enantiopure deuterium-enriched pioglitazone” (DeuteRx, LLC, priority 2014, dated 2019)
Where two headings read alike, the source gives them in different places.

Assays:
[1] = plasma
Protocol: The plasma samples were incubated at 37° C. in duplicate (anticoagulant: K3EDTA). […] Samples were placed at −80° C. until the study was complete. […] The vortexed samples were centrifuged and 50 μL of supernatant was dispensed in a 96-well plate.
The deuterium in both enantiomers, d-S and d-R, can be lost by D/H exchange to give both protonated enantiomers, h-S and h-R with rate constants kDRR, kDRS, kDSR, and kDSS. At the same time, the protonated enantiomers h-S and h-R can exchange with enantiomerization rate constants kRS and kSR. All four compounds can also degrade with potentially different degradation rate constants kdSd, kdRd, khSd, and khRd.
Human and mouse plasma data were analyzed independently. […] Data in each species was analyzed using a stepwise approach.
The step between calculated time points was minimized in order to minimize the local error (proportional to the square of the step size) and the global error (proportional to the step size).

db/db mice = assay: db/db mouse model of type II diabetes, 10-day daily oral dosing; type: in vivo; details: for decrease of IL-1β / decrease of IL-6 / decrease of TNF-α: d-R-pio 20 mg/kg; for adiponectin: d-S-pio 20 mg/kg; for non-essential fatty acids: 20 mg/kg daily oral gavage, 10 days, compared with h-rac-pio 30 mg/kg
Protocol: Body weights were measured throughout the study. Non-fasting blood glucose (10 μL by tail snip) was measured 4 hours prior to first dose, and animals were sorted and assigned to groups based on this measure. […] A terminal blood sample was collected for determination of serum levels of cholesterol, triglycerides, free fatty acids, adiponectin, serum amyloid A, and cytokines IL-1β, IL-6, TNF-α, and MCP-1, using standard analytical methods. Quantitative results were analyzed by statistical methods using, as appropriate, one- or two-way ANOVA or Kruskal-Wallis tests for differences followed by Sidak's, Dunnett's, or Dunn's post-test to determine differences vs. vehicle-treated control animals. All graphs were generated with GraphPad Prism version 6.0.2 (GraphPad Software, Inc., La Jolla, Calif.).

[2] = Body weight gain in male C57BL/6J mice on a standard diet; type: in vivo, mouse; details: twice daily oral gavage for 11 days; overall daily dose h-rac-pio 30 mg/kg, d-S-pio 15 mg/kg, d-R-pio 15 mg/kg; vs. vehicle
Protocol: Male C57BL/6J mice (about 28 g body weight) were acclimated singly-housed for one week to a reverse light/dark cycle with free access to water and standard maintenance diet. Animals were then handled daily for one week followed by another 7 days of twice daily dosing with vehicle (0.5% methylcellulose in water) by oral gavage. […] Body weights were measured twice daily, prior to each dosing, to adjust individual dosing volumes to actual body weights.

[3] = biological target: human recombinant monoamine oxidase B (Homo sapiens (Human), UniProt P27338); assay: Monoamine oxidase B (MAO-B) inhibition, luminescence assay; type: biochemical
Protocol: The mixtures were incubated at 22° C. for 5 min. Substrate (D-luciferin derivative) was added, and then the mixture was incubated at 37° C. for 60 min. The reaction was stopped by addition of the detection reagent containing luciferase. Luminescence was read after standing for 60 min at room temperature.
Results were expressed as a percentage of the luminescence of the control (enzyme+substrate). IC50 values were obtained by fitting experimental data (mean % luminescence as function of concentration) to the Hill equation with variable slope using non-linear regression analysis.

[4] = mouse, in vivo, po, 15 mg/kg
Protocol: (§1) Animals were then euthanized. Plasma was separated by centrifugation and stored at −80° C. until analyzed.
(§2) Concentrations were calculated by interpolation on standard curves generated from mouse plasma samples spiked with known concentrations of the pure analytes.

[5] = Pharmacokinetics in male C57BL/6 mice after oral gavage for 5 days; details: day 5, oral gavage daily; for t1/2 (h) d-S: elimination half-life of d-S-pio; for t1/2 (h) h-R: elimination half-life of h-R-pio; for t1/2 (h) h-R / t1/2 (h) h-S: h-rac-pio 30 mg/kg, d-S-pio and d-R-pio 15 mg/kg; for t1/2 (h) h-S: elimination half-life of h-S-pio
Protocol: as §1, §2

[6] = 10 days daily oral, h-rac-pio 30 mg/kg, vs. vehicle

Sequence of human recombinant monoamine oxidase B (P27338 whole entry): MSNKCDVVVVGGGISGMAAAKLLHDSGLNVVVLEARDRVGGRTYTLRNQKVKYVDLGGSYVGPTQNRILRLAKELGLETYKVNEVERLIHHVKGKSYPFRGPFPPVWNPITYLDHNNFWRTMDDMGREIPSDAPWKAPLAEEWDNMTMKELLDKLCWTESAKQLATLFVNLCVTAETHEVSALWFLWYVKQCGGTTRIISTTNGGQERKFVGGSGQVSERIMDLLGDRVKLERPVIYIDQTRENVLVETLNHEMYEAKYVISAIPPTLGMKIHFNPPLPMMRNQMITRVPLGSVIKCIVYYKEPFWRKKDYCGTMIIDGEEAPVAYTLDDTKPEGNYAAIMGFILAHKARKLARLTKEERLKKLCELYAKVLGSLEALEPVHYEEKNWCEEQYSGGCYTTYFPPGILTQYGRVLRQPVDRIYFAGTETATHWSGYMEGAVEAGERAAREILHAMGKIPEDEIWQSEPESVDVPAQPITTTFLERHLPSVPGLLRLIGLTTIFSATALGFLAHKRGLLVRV

In the case of [2H]C1(Cc2ccc(OCCc3ccc(CC)cn3)cc2)SC(=O)NC1=O (racemic) [d-rac-pio, rac-5-({p-[2-(5-Ethyl-2-pyridyl)ethoxy]phenyl}methyl)-(5-^2H)-1,3-thiazolidine-2,4-dione], the “t1/2 of h-R-pio, ln(2)/kRS” value ([1]; human) is reported as 1.6 h, the “t1/2 of h-S-pio, ln(2)/kSR” value ([1]; human) is reported as 1.6 h and the “t1/2 of h-R-pio, ln(2)/kRS” value ([1]; mouse) is reported as 0.9 h. The “t1/2 of h-S-pio, ln(2)/kSR” value ([1]; mouse) was 0.75 h.

With CCc1ccc(CCOc2ccc(CC3SC(=O)NC3=O)cc2)nc1 (racemic) [h-rac-pio, rac-5-({p-[2-(5-Ethyl-2-pyridyl)ethoxy]phenyl}methyl)-1,3-thiazolidine-2,4-dione, reference compound] the “decrease of IL-1β” value (db/db mice; [6]) was “trending”, the “decrease of IL-6” value (db/db mice; [6]) was “trending” and the “decrease of TNF-α” value (db/db mice; [6]) was “trending”. For the same molecule, the adiponectin (db/db mice; [6]) was “significantly increased”, the insulin (db/db mice; [6]) was “significantly decreased” and the “percent body weight difference versus day 1 body weight” value [2] was “statistically significant increase”.

With [2H][C@]1(Cc2ccc(OCCc3ccc(CC)cn3)cc2)SC(=O)NC1=O [d-R-pio, (R)-5-({p-[2-(5-Ethyl-2-pyridyl)ethoxy]phenyl}methyl)-(5-^2H)-1,3-thiazolidine-2,4-dione] the “difference in inhibition efficacy between d-R-pio and d-S-pio” value [3] was “greater than 5 fold”, the non-essential fatty acids (db/db mice) was “a similar trend was observed” and the “decrease of IL-1β” value (db/db mice; [6]) was “trending”. The “decrease of IL-6” value (db/db mice; [6]) was “trending”, the “decrease of TNF-α” value (db/db mice; [6]) was “trending” and the “percent body weight difference versus day 1 body weight” value [2] was “did not increase percent body weight difference over vehicle”. For the same molecule, the “tmax (h) d-R” value [4] was 1 h, the “t1/2 (h) d-S” value ([5]; 15 mg/kg) was 0.8 h and the “t1/2 (h) h-R” value [5] was 2.5 h. For the same molecule, the “t1/2 (h) h-S” value [5] was 2.5 h, the “AUC0-inf (ng · h/mL) d-R” value ([5]; plasma d-R-pio, 15 mg/kg) was 18892 ng·h/mL and the “Cmax (ng/mL) d-R” value ([5]; plasma d-R-pio, 15 mg/kg) was 6360 ng/mL.

With [2H][C@@]1(Cc2ccc(OCCc3ccc(CC)cn3)cc2)SC(=O)NC1=O [d-S-pio, (S)-5-({p-[2-(5-Ethyl-2-pyridyl)ethoxy]phenyl}methyl)-(5-^2H)-1,3-thiazolidine-2,4-dione] the non-essential fatty acids (db/db mice) was “a similar trend was observed”, the adiponectin (db/db mice; [6]) was “significantly increased” and the “percent body weight difference versus day 1 body weight” value [2] was “statistically significant increase”. For the same molecule, the “t1/2 (h) d-S” value ([5]; 15 mg/kg) was 2.3 h, the “t1/2 (h) h-R” value [5] was 3.2 h and the “t1/2 (h) h-S” value [5] was 3.1 h.
